Data published in PubChem BioAssay AID2060614 (Molecular Pharmacology Branch, DTP, NCI, 2025).
Each block holds one compound with its values, some of them ahead of it.

Tested on: 598228-144-R-J1-PDC complex spheroids, viability
Assay: Anticancer human tumor 598228-144-R-J1-PDC patient-derived serous endometrial adenocarcinoma cell line growth inhibition [CLK]
Conditions: for IC50: curve of first compound; for viability, T/C: stronger effect = lower value
In short: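 Patient-derived tumor cells grown as complex spheroids with HUVEC endothelial cells and mesenchymal stem cells, treated with drug combinations. Concentrations descend in half-log steps from near clinical Cmax, or from 10 microM if Cmax unknown.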

[1] = second compound 0.0316 µM, first compound 0.0316 µM
[2] = second compound 0.0316 µM, first compound 0.1 µM
[3] = second compound 0.0316 µM, first compound 0.316 µM
[4] = second compound 0.0316 µM, first compound 1 µM
[5] = second compound 0.0316 µM, first compound 3.16 µM
[6] = second compound 0.0316 µM, first compound 10 µM
[7] = second compound 0.1 µM, first compound 0.0316 µM
[8] = second compound 0.1 µM, first compound 0.1 µM
[9] = second compound 0.1 µM, first compound 0.316 µM
[10] = second compound 0.1 µM, first compound 1 µM
[11] = second compound 0.1 µM, first compound 3.16 µM
[12] = second compound 0.1 µM, first compound 10 µM
[13] = second compound 0.316 µM, first compound 0.0316 µM
[14] = second compound 0.316 µM, first compound 0.1 µM
[15] = second compound 0.316 µM, first compound 0.316 µM
[16] = second compound 0.316 µM, first compound 1 µM
[17] = second compound 0.316 µM, first compound 3.16 µM
[18] = second compound 0.316 µM, first compound 10 µM
[19] = second compound 1 µM, first compound 0.0316 µM
[20] = second compound 1 µM, first compound 0.1 µM
[21] = second compound 1 µM, first compound 0.316 µM
[22] = second compound 1 µM, first compound 1 µM
[23] = second compound 1 µM, first compound 3.16 µM
[24] = second compound 1 µM, first compound 10 µM
[25] = second compound 3.16 µM, first compound 0.0316 µM
[26] = second compound 3.16 µM, first compound 0.1 µM
[27] = second compound 3.16 µM, first compound 0.316 µM
[28] = second compound 3.16 µM, first compound 1 µM
[29] = second compound 3.16 µM, first compound 3.16 µM
[30] = second compound 3.16 µM, first compound 10 µM
[31] = second compound 10 µM, first compound 0.0316 µM
[32] = second compound 10 µM, first compound 0.1 µM
[33] = second compound 10 µM, first compound 0.316 µM
[34] = second compound 10 µM, first compound 1 µM
[35] = second compound 10 µM, first compound 3.16 µM
[36] = second compound 10 µM, first compound 10 µM
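Further: spheroids exposed to compounds for seven days before readout.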
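Wherever viability, T/C is given: 100% = DMSO vehicle control wells.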

IC50 (second compound 0.0316 µM): > 10 µM
IC50 (second compound 0.1 µM): > 10 µM
IC50 (second compound 0.316 µM): > 10 µM
IC50 (second compound 1 µM): > 10 µM
IC50 (second compound 3.16 µM): > 10 µM
IC50 (second compound 10 µM): > 10 µM
SMILES: C#Cc1c(F)ccc2cc(O)cc(-c3ncc4c(N5CC6CCC(C5)N6)nc(OCC56CCCN5CC(F)C6)nc4c3F)c12 (centres undefined) + CNC(=O)c1ccc(Nc2nc(OC3CCCC3)c3c(-c4ccc5nc(C)oc5c4)c[nH]c3n2)c(OC)c1
viability, T/C [1]: 111%
viability, T/C [2]: 112%
viability, T/C [3]: 117%
viability, T/C [4]: 125%
viability, T/C [5]: 99.5%
viability, T/C [6]: 94.1%
viability, T/C [7]: 99.7%
viability, T/C [8]: 104%
viability, T/C [9]: 109%
viability, T/C [10]: 102%
viability, T/C [11]: 98.1%
viability, T/C [12]: 88.3%
viability, T/C [13]: 120%
viability, T/C [14]: 102%
viability, T/C [15]: 132%
viability, T/C [16]: 100%
viability, T/C [17]: 110%
viability, T/C [18]: 90.7%
viability, T/C [19]: 101%
viability, T/C [20]: 90.3%
viability, T/C [21]: 98.3%
viability, T/C [22]: 98.2%
viability, T/C [23]: 104%
viability, T/C [24]: 83.3%
viability, T/C [25]: 98.5%
viability, T/C [26]: 92.5%
viability, T/C [27]: 81.8%
viability, T/C [28]: 83.6%
viability, T/C [29]: 95.2%
viability, T/C [30]: 88.5%
viability, T/C [31]: 83.3%
viability, T/C [32]: 80.7%
viability, T/C [33]: 90.8%
viability, T/C [34]: 81.9%
viability, T/C [35]: 102%
viability, T/C [36]: 78.8%

IC50 (second compound 0.0316 µM): 5.08 µM
IC50 (second compound 0.1 µM): 5.07 µM
IC50 (second compound 0.316 µM): 5.08 µM
IC50 (second compound 1 µM): 4.6 µM
IC50 (second compound 3.16 µM): 4.83 µM
IC50 (second compound 10 µM): 4.05 µM
SMILES: C=C(F)C(=O)N1CCN(c2nc(OCC3CCCN3C)nc3c2CCN(c2cccc4cccc(Cl)c24)C3)CC1CC#N (centres undefined) + CNC(=O)c1ccc(Nc2nc(OC3CCCC3)c3c(-c4ccc5nc(C)oc5c4)c[nH]c3n2)c(OC)c1
viability, T/C [1]: 108%
viability, T/C [2]: 115%
viability, T/C [3]: 98.6%
viability, T/C [4]: 99.7%
viability, T/C [5]: 85.7%
viability, T/C [6]: 1.18%
viability, T/C [7]: 104%
viability, T/C [8]: 101%
viability, T/C [9]: 96.2%
viability, T/C [10]: 97.7%
viability, T/C [11]: 81.5%
viability, T/C [12]: 4.78%
viability, T/C [13]: 102%
viability, T/C [14]: 98.6%
viability, T/C [15]: 89.3%
viability, T/C [16]: 107%
viability, T/C [17]: 83.9%
viability, T/C [18]: 1.64%
viability, T/C [19]: 100%
viability, T/C [20]: 89.7%
viability, T/C [21]: 89.3%
viability, T/C [22]: 92.4%
viability, T/C [23]: 72.9%
viability, T/C [24]: 2.52%
viability, T/C [25]: 85.3%
viability, T/C [26]: 90.9%
viability, T/C [27]: 92.9%
viability, T/C [28]: 91.1%
viability, T/C [29]: 77.3%
viability, T/C [30]: 3.14%
viability, T/C [31]: 86.3%
viability, T/C [32]: 82.7%
viability, T/C [33]: 83.4%
viability, T/C [34]: 80.8%
viability, T/C [35]: 62.8%
viability, T/C [36]: 3.36%
